Laboratory results from patent publication US8980610B2 (priority 2009, dated 2015).
Values joined by “and” are separate entries in the source; they are usually repeats but may differ in a detail not shown here. Equal entries are not always repeated. Where two headings read alike, the source gives them in different places.

Legend:
[1] = tested on: X-MLV; format: cell-based, Xenotropic Murine leukemia virus
[2] = tested on: X-MLV; format: cell-based, Xenotropic Murine leukemia virus; details: for RF (Reduction Factor) / Sample Titer: 2-8° C.
[3] = tested on: SuHV-1; format: cell-based, Suid herpesvirus 1
[4] = tested on: MMV; format: cell-based, Murine minute virus; details: 2-8° C.; for RF (Reduction Factor): 5 mM Tris + 1.0M Arginine-HCl (pH 7.0)
[5] = tested on: polio virus; details: cited from earlier work
[6] = tested on: X-MLV; assay: TRITON X-100 X-MLV inactivation in GE2-Fcγ-Fcε clarified conditioned media, TCID50 assay; format: cell-based, Xenotropic Murine leukemia virus
Method: Virus inactivation kinetics obtained by exposure to low pH, TRITON® X-100 and arginine were studied using sample process intermediates of a recombinant antibody designated GE2-Fcγ-Fcε. All studies were performed at 2-8° C.
For the TRITON® X-100 inactivation studies, TRITON® X-100 was added to the GE2-Fcγ-Fcε clarified conditioned media (CCM) at concentrations of 0.10% (v/v) and 0.20% (v/v). MABSELECT™ (GE Healthcare Bio-Sciences Corp., Piscataway, N.J., USA) Protein-A chromatography eluates containing GE2-Fcγ-Fcε with the pH adjusted to 3.7 or 3.9 were used as the starting material for the low pH viral inactivation studies. Neutralized MABSELECT™ Eluate buffer (1.0 M arginine-HCl, ˜5 mM Tris, pH 7.3 (+/−) 0.5) and neutralized MABSELECT™ Eluate buffer containing GE2-Fcγ-Fcε were also used as process intermediates for the additional inactivation studies. The process intermediates used in these studies were known to be stable under the examined conditions.
TRITON® X-100 inactivation experiments were performed in duplicate using final concentrations of 0.10% or 0.20% (v/v) TRITON® X-100 in GE2-Fcγ-Fcε clarified conditioned media.

[7] = 1.0 M arginine-HCl, ~5 mM Tris, pH ~7.0, with GE2-Fcγ-Fcε 3.3 mg/mL, 2-8° C., 120 min
[8] = 5 mM Tris + 1.0M Arginine-HCl (pH 7.0), 2-8° C., 15 min
[9] = 5 mM Tris + 1.0M Arginine-HCl (pH 7.0), 2-8° C., 30 min
[10] = 5 mM Tris + 1.0M Arginine-HCl (pH 7.0), 2-8° C., 60 min
[11] = 5 mM Tris + 1.0M Arginine-HCl (pH 7.0), 2-8° C., 120 min
[12] = 5 mM Tris + 1.0M Arginine-HCl (pH 7.0), 2-8° C., 240 min (non-quenched)
[13] = 5 mM Tris + 1.0M Arginine-HCl (pH 7.0), 2-8° C., 240 min (quenched)
[14] = 0.10% (v/v) in GE2-Fcγ-Fcε clarified conditioned media, 2-8° C., 5 min
[15] = 0.10% (v/v) in GE2-Fcγ-Fcε clarified conditioned media, 2-8° C., 45 min
[16] = 0.10% (v/v) in GE2-Fcγ-Fcε clarified conditioned media, 2-8° C., 120 min
[17] = 0.20% (v/v) in GE2-Fcγ-Fcε clarified conditioned media, 2-8° C., 30 min
[18] = 0.20% (v/v) in GE2-Fcγ-Fcε clarified conditioned media, 2-8° C., 45 min

In the case of `N=C(N)NCCC[C@H](N)C(=O)O` [Arginine, arginine], the “X-MLV Reduction Factor in all of the arginine studies” value ([1]; 1 M arginine, with and without GE2-Fcγ-Fcε, 120 min of exposure) is reported as ≥ 4.1, the Output titer ([1]; 1.0 M arginine-HCl, ~5 mM Tris, pH ~7.0, no GE2-Fcγ-Fcε, 2-8° C., 120 min) is reported as “≦1.17 Log10 TCID50/mL” and the Output titer [1, 7] is reported as “≦1.17 Log10 TCID50/mL”. For the same molecule, the “RF (Reduction Factor)” value [1, 7] was “≧4.2”, the “exposure time after which X-MLV was at, or below, detectable levels” value ([1]; neutral solution containing 1 M arginine, Runs 9-12) was 15 min and the “RF (Reduction Factor)” value ([2]; 5 mM Tris + 0.10M Arginine-HCl (pH 7.0), 30 min) was 0.2 and 0.3. For the same molecule, the “RF (Reduction Factor)” value ([2]; 5 mM Tris + 0.10M Arginine-HCl (pH 7.0), 120 min) was 0.3, the “RF (Reduction Factor)” value ([2]; 5 mM Tris + 0.50M Arginine-HCl (pH 7.0), 15 min) was 1.7 and 1.6 and the “RF (Reduction Factor)” value ([2]; 5 mM Tris + 0.50M Arginine-HCl (pH 7.0), 30 min) was 2.3 and 2.0. For the same molecule, the “RF (Reduction Factor)” value ([2]; 5 mM Tris + 0.50M Arginine-HCl (pH 7.0), 60 min) was 2.7 and 2.5, the “RF (Reduction Factor)” value ([2]; 5 mM Tris + 0.50M Arginine-HCl (pH 7.0), 120 min) was 3.4 and 3.5 and the “RF (Reduction Factor)” value ([2]; 5 mM Tris + 0.50M Arginine-HCl (pH 7.0), 120 min, listed as arginine) was 3.4 and 3.5. The “Sample Titer” value ([2]; 15 min) was 5.59 Log10 TCID50/mL and 5.71 Log10 TCID50/mL and 4.10 Log10 TCID50/mL and 4.04 Log10 TCID50/mL, the “Sample Titer” value ([2]; 30 min) was 5.71 Log10 TCID50/mL and 5.29 Log10 TCID50/mL and 3.50 Log10 TCID50/mL and 3.68 Log10 TCID50/mL and the “Sample Titer” value ([2]; 60 min) was 5.65 Log10 TCID50/mL and 5.29 Log10 TCID50/mL and 3.03 Log10 TCID50/mL and 3.15 Log10 TCID50/mL. For the same molecule, the “X-MLV inactivation (in words)” value ([2]; pH 7) was “did not occur”, the “Adjusted titer of sample” value [3, 8] was 2.95 Log10 TCID50/mL and 2.89 Log10 TCID50/mL and the “RF (Reduction Factor)” value [3, 8] was 2.30 and 2.11. For the same molecule, the “Titer of quenched sample” value [3, 8] was 1.95 Log10 TCID50/mL and 1.89 Log10 TCID50/mL, the “Adjusted titer of sample” value [3, 9] was “≦1.57 Log10 TCID50/mL” and the “Titer of quenched sample” value [3, 9] was “≦0.57 Log10 TCID50/mL”. For the same molecule, the “Adjusted titer of sample” value [3, 10] was “≦1.57 Log10 TCID50/mL”, the “Titer of quenched sample” value [3, 10] was “≦0.57 Log10 TCID50/mL” and the “Adjusted titer of sample” value [3, 11] was “≦1.57 Log10 TCID50/mL”. The “Titer of quenched sample” value [3, 11] was “≦0.57 Log10 TCID50/mL”, the “Adjusted titer of sample” value [3, 12] was “≦1.53 Log10 TCID50/mL” and the “Titer of sample from TCID50 assay” value [3, 12] was “≦1.53 Log10 TCID50/mL”. The “Adjusted titer of sample (Output virus titer)” value [3, 13] was “≦1.57 Log10 TCID50/mL”, the “Titer of quenched sample” value [3, 13] was “≦0.57 Log10 TCID50/mL” and the “exposure time after which SuHV-1 titer was below the assay limit of detection” value ([3]; 1.0 M arginine (pH 7.0), duplicate runs) was 30 min. The “RF (Reduction Factor)” value ([4]; 240 min (non-quenched)) was 0.30 and 0.17, the “RF (Reduction Factor)” value ([4]; 240 min (quenched)) was −0.25 and the “Adjusted titer of sample” value [4] was 6.83 Log10 TCID50/mL and 7.33 Log10 TCID50/mL. The “Adjusted titer of sample (Output virus titer)” value [4] was 7.38 Log10 TCID50/mL and 7.75 Log10 TCID50/mL, the “Titer of quenched sample” value [4] was 6.38 Log10 TCID50/mL and 6.75 Log10 TCID50/mL and the “Titer of sample from TCID50 assay” value [4] was 6.83 Log10 TCID50/mL and 7.33 Log10 TCID50/mL. The “Adjusted titer of sample” value ([4]; 15 min) was 7.50 Log10 TCID50/mL and 7.25 Log10 TCID50/mL, the “Titer of quenched sample” value ([4]; 15 min) was 6.50 Log10 TCID50/mL and 6.25 Log10 TCID50/mL and the “Adjusted titer of sample” value ([4]; 30 min) was 7.63 Log10 TCID50/mL and 7.38 Log10 TCID50/mL. For the same molecule, the “Titer of quenched sample” value ([4]; 30 min) was 6.63 Log10 TCID50/mL and 6.38 Log10 TCID50/mL, the “Adjusted titer of sample” value ([4]; 60 min) was 7.63 Log10 TCID50/mL and 7.75 Log10 TCID50/mL and the “Titer of quenched sample” value ([4]; 60 min) was 6.63 Log10 TCID50/mL and 6.75 Log10 TCID50/mL. For the same molecule, the “Adjusted titer of sample” value ([4]; 120 min) was 7.50 Log10 TCID50/mL and 7.75 Log10 TCID50/mL, the “Titer of quenched sample” value ([4]; 120 min) was 6.50 Log10 TCID50/mL and 6.75 Log10 TCID50/mL and the “inactivation of non-enveloped polio virus (in words)” value [5] was “ineffective”.

With `NCC(=O)O` [Glycine, glycine, reference compound] the “Adjusted titer of sample” value ([2]; pH 7) was 6.00 Log10 TCID50/mL and 5.50 Log10 TCID50/mL and 5.60 Log10 TCID50/mL and 5.38 Log10 TCID50/mL and 5.63 Log10 TCID50/mL, the “Adjusted titer of sample (Output virus titer)” value ([2]; pH 7) was 5.63 Log10 TCID50/mL and 5.88 Log10 TCID50/mL and the “Titer of quenched sample” value ([2]; pH 7) was 5.00 Log10 TCID50/mL and 4.50 Log10 TCID50/mL and 4.63 Log10 TCID50/mL and 4.38 Log10 TCID50/mL and 4.88 Log10 TCID50/mL. The “Titer of sample from TCID50 assay” value ([2]; pH 7) was 5.60 Log10 TCID50/mL.

With TRITON ® X-100 the “Adjusted titer of sample” value [6, 14] was “≦2.00 Log10 TCID50/mL”, the “Titer of quenched sample” value [6, 14] was “≦0.70 Log10 TCID50/mL” and the “Adjusted titer of sample” value [6, 15] was “≦1.99 Log10 TCID50/mL”. For the same molecule, the “Titer of quenched sample” value [6, 15] was “≦0.69 Log10 TCID50/mL”, the “Adjusted titer of sample (Output virus titer)” value [6, 16] was “≦1.99 Log10 TCID50/mL” and the “RF (Reduction Factor)” value [6, 16] was ≥ 3.1. The “Titer of quenched sample” value [6, 16] was “≦0.69 Log10 TCID50/mL”, the “exposure time after which X-MLV was below detection limits” value ([6]; 0.10% and 0.20% TRITON X-100) was 5 min and the “RF (Reduction Factor)” value ([6]; 0.20% (v/v) in GE2-Fcγ-Fcε clarified conditioned media, 2-8° C., 15 min) was “≧3.1”. For the same molecule, the “Adjusted titer of sample” value [6, 17] was “≦1.99 Log10 TCID50/mL”, the “RF (Reduction Factor)” value [6, 17] was “≧3.1” and the “Titer of quenched sample” value [6, 17] was “≦0.69 Log10 TCID50/mL”. The “Adjusted titer of sample” value [6, 18] was “≦1.99 Log10 TCID50/mL”, the “RF (Reduction Factor)” value [6, 18] was “≧3.1” and the “Titer of quenched sample” value [6, 18] was “≦0.69 Log10 TCID50/mL”. The “RF (Reduction Factor)” value ([6]; 0.20% (v/v) in GE2-Fcγ-Fcε clarified conditioned media, 2-8° C., 120 min) was ≥ 2.6.
